Patent US4414219A, “Antidepressant (α-phenyl-2-tolyl)azacycloalkanols and derivatives thereof” (American Hoechst Corporation, priority 1980, dated 1983)
Structures can show the parent of a compound that is named as a salt. Where two headings read alike, the source gives them in different places.

Tests used:
Assay type in all cases: in vivo
toxicity of amphetamine = assay: Amphetamine Aggregation Toxicity Reversal Assay (tranquilizer); settings: 20 mg/kg oral; against 15 mg/kg intraperitoneal amphetamine sulfate; aggregated mice, survival up to 3 hours
Text: Compounds of the invention are still further useful as tranquilizers due to their ability to reverse toxicity of amphetamine as measured in the Amphetamine Aggregation Toxicity Reversal Assay [Chance, M. R. A., J. Pharmacol. Exper. Therap. 87, pp. 214-219 (1946) and Proctor, C. D., Putts, J. T., Lundy, R. O., and Greenfield, E. J., Arch. Int. Pharmacodynam. 163, (1), pp. 79-86 (1966)]. In our assay "aggregated mice" mean 5 mice/group placed in such a manner as to yield 20 cm^2 of floor space per mouse. Animals are aggregated immediately after injection with amphetamine sulfate and then checked for survival up to 3 hours. For example, under these conditions an oral dosage of 20 mg/kg of body weight of 1-[3-(4-fluorobenzoyl)propyl]-4-(α-phenyl-2-tolyl)piperidine effects a 60% protection against the intraperitoneal dose of 15 mg/kg of amphetamine sulfate.

[1] = tested on: supra maximal electro shock (SES); assay: protection from supra maximal electro shock (SES), anticonvulsant
Protocol: Compounds of the present invention are further useful as anticonvulsant agents for mammals, as determined by the method of Woodbury, L. A. and Davenport, V. D., in Arch, Int. Pharmacodynam, Vol. 92, (1952) at pages 97-107. For example, the intraperitoneal dose of 17.6 mg/kg of body weight of 1-methyl-4-[-(4,fluorophenyl)-2-tolyl]-1,2,3,6-tetrahydropyridine hydrobromide produces an 83% protection from the effect of supra maximal electro shock (SES). Intraperitoneal doses of other representative compounds of the invention and their ability to protect from the effect of SES is shown below in Table IV.

[2] = tested on: tetrabenazine-induced ptosis; assay: inhibition of tetrabenazine-induced ptosis in mice (antidepressant assay); settings: Mus musculus, ip, read-out: ED50 (50% inhibition from the ptosis of tetrabenazine-induced depression)
Text: Thus, for instance, the intraperitoneal dosages at which the following compounds (ED50) effect a 50% inhibition from the ptosis of tetrabenazine-induced depression in mice are:
It is to be noted and stressed at this point that the substitution of a benzyl in the 2- or ortho position of the phenyl ring, in the compounds of the invention, is critical to biological especially antidepressant, activity. Where the benzyl is substituted in the 3- or meta position or the 4- or para position, the corresponding compound is relatively ineffective as compared to the 2-substituted compounds of the invention. In this regard, reference is made to the following Table II which illustrates such criticality in the form of intraperitoneal dosages at which a series (A. B. and C.) of 2-, 3- and 4-substituted compounds effect a 50% inhibition from the ptosis of tetrabenazine-induced depression in mice: […]

[3] = tested on: 2-phenyl-1,4-quinone induced writhing; assay: 2-phenyl-1,4-quinone induced writhing assay in mice (analgesia); settings: for inhibition of writhing: 60 mg/kg p.o., comparison
Protocol: Compounds of the invention are also useful as analgesic agents due to their ability to alleviate pain in mammals. […] Exptl. Biol. Med., 95, 729 (1957)]. Thus, for example, a 50% inhibition in writhing is effected by the oral administration of 28.4 mg/kg of body weight of 4-acetoxy-1-methyl-4-(α-phenyl)-2-tolyl)piperidine hydrochloride. Other representative compounds of the invention and their respective ability to inhibit said writhing is shown below in Table III.

[4] = tested on: tetrabenazine-induced ptosis; assay: inhibition of tetrabenazine-induced ptosis in mice (antidepressant assay); settings: 25 mg/kg intraperitoneal
[5] = intraperitoneal, mice, Table II (2-, 3- and 4-substituted series A, B, C)

O=C(CCCN1CCC(c2ccccc2Cc2ccccc2)CC1)c1ccc(F)cc1 [1-[3-(4-fluorobenzoyl)propyl]-4-(α-phenyl-2-tolyl)piperidine]
protection against amphetamine sulfate toxicity (toxicity of amphetamine): 60%

Cl.OC1(c2ccccc2Cc2ccccc2)CCN(Cc2ccccc2)C1 (stereo not drawn) [1-benzyl-3-(α-phenyl-2-tolyl)-3-pyrrolidinol hydrochloride]
% SES Protection ([1]; 50 mg/kg intraperitoneal): 83%

ON1CCC(c2ccccc2Cc2ccccc2)CC1 [1-hydroxy-4-(α-phenyl-2-tolyl)piperidine]
ED50 ([2]; intraperitoneal, mice, Table I): 3 mg/kg

CN1CC=C(c2ccccc2Cc2ccccc2)CC1 [1-methyl-4-(α-phenyl-2-tolyl)-1,2,3,6-tetrahydropyridine]
ED50 [2]: 8.8 mg/kg

CN1CCC(O)(c2ccccc2Cc2ccccc2)CC1 [1-methyl-4-(α-phenyl-2-tolyl)-4-piperidinol]
ED50 [2]: 8 mg/kg | % Inhibition in Writhing ([3]; 50.0 mg/kg po, mice): 41% | % SES Protection ([1]; 36 mg/kg intraperitoneal): 50%

CCC(=O)OC1(c2ccccc2Cc2ccccc2)CCN(C)CC1.Cl [1-methyl-4-(α-phenyl-2-tolyl)-4-propionyloxypiperidine hydrochloride]
% Inhibition in Writhing ([3]; 8.9 mg/kg sc, mice): 50% | % SES Protection ([1]; 50 mg/kg intraperitoneal): 50%

CN1CCC(c2ccccc2Cc2ccccc2)CC1.Cl [1-methyl-4-(α-phenyl-2-tolyl)piperidine hydrochloride]
ED50 [2, 5]: 2.5 mg/kg | % Inhibition in Writhing ([3]; 61.7 mg/kg po, mice): 50% | % SES Protection ([1]; 50 mg/kg intraperitoneal): 83%

CN1CC=C(c2cccc(Cc3ccccc3)c2)CC1 [1-methyl-4-(α-phenyl-3-tolyl)-1,2,3,6-tetrahydropyridine, reference compound]
ED50 [2]: > 50 mg/kg

CN1CCC(c2cccc(Cc3ccccc3)c2)CC1.O=C(O)C(=O)O [1-methyl-4-(α-phenyl-3-tolyl)piperidine oxalate, reference compound]
ED50 [2, 5]: > 20 mg/kg

CN1CC=C(c2ccc(Cc3ccccc3)cc2)CC1 [1-methyl-4-(α-phenyl-4-tolyl)-1,2,3,6-tetrahydropyridine, reference compound]
ED50 [2]: > 50 mg/kg

CN1CCC(c2ccc(Cc3ccccc3)cc2)CC1.O=C(O)C(=O)O [1-methyl-4-(α-phenyl-4-tolyl)piperidine oxalate, reference compound]
ED50 [2, 5]: > 20 mg/kg

CN1CCC(O)(c2ccccc2Cc2ccc(F)cc2)CC1 [1-methyl-4-[α-(4-fluorophenyl)-2-tolyl]-4-piperidinol]
ED50 [2]: 8.2 mg/kg | % SES Protection ([1]; 23.3 mg/kg intraperitoneal): 50%

Br.COc1ccc(Cc2ccccc2C2=CCN(C)CC2)cc1 [1-methyl-4-[α-(4-methoxyphenyl)-2-tolyl]-1,2,3,6-tetrahydropyridine hydrobromide]
% SES Protection ([1]; 25.6 mg/kg intraperitoneal): 50%

Br.c1ccc(CCN2CCC(c3ccccc3Cc3ccccc3)CC2)cc1 [1-phenethyl-4-(α-phenyl-2-tolyl)piperidine hydrobromide]
% SES Protection ([1]; 37.5 mg/kg intraperitoneal): 50%

C1=C(c2ccccc2Cc2ccccc2)CCNC1 [4-(α-phenyl-2-tolyl)-1,2,3,6-tetrahydropyridine]
ED50 [2]: 2.1 mg/kg | % Inhibition in Writhing ([3]; 7.8 mg/kg sc, mice): 50%

Cl.OC1(c2ccccc2Cc2ccccc2)CCNCC1 [4-(α-phenyl-2-tolyl)-4-piperidinol hydrochloride]
ED50 ([2]; intraperitoneal, mice, Table I): 5.4 mg/kg

Cl.c1ccc(Cc2ccccc2C2CCNCC2)cc1 [4-(α-phenyl-2-tolyl)piperidine hydrochloride]
ED50 [2, 5]: 1.7 mg/kg

Cl.c1ccc(Cc2cccc(C3CCNCC3)c2)cc1 [4-(α-phenyl-3-tolyl)piperidine hydrochloride, reference compound]
ED50 [2, 5]: > 20 mg/kg

Cl.c1ccc(Cc2ccc(C3CCNCC3)cc2)cc1 [4-(α-phenyl-4-tolyl)piperidine hydrochloride, reference compound]
ED50 [2, 5]: > 20 mg/kg

Br.CN1CC=C(c2ccccc2Cc2ccc(F)cc2)CC1 [4-[α-(4-fluorophenyl)-2-tolyl]-1-methyl-1,2,3,6-tetrahydropyridine hydrobromide]
ED50 [2]: 8 mg/kg | protection from the effect of supra maximal electro shock (SES) ([1]; 17.6 mg/kg intraperitoneal): 83%

CC(=O)OC1(c2ccccc2Cc2ccccc2)CCN(C)CC1.Cl [4-acetoxy-1-methyl-4-(α-phenyl-2-tolyl)piperidine hydrochloride]
inhibition in writhing ([3]; 28.4 mg/kg oral, mice): 50% | inhibition from the ptosis of tetrabenazine-induced depression [4]: 40%

CN1CCC(OC(=O)c2ccccc2)(c2ccccc2Cc2ccccc2)CC1.Cl [4-benzoyloxy-1-methyl-4-(α-phenyl-2-tolyl)piperidine hydrochloride]
% Inhibition in Writhing ([3]; 12.8 mg/kg sc, mice): 50%

CC(=O)Oc1ccccc1C(=O)O [aspirin, reference compound]
inhibition of writhing [3]: 34%

CCC(=O)O[C@](Cc1ccccc1)(c1ccccc1)[C@H](C)CN(C)C [propoxyphene hydrochloride, reference compound]
inhibition of writhing [3]: 50%
